Measurements: US20110268711A1, “PANCREATIC STELLATE CELL SPECIFIC PROMOTER AND USES THEREOF” (AGENCY FOR SCIENCE, TECHNOLOGY AND RESEARCH, priority 2007, published 2011)
“Also recorded” adds a separate entry of the source. Where two headings read alike, the source gives them in different places.

Test system: 2.2-kb hGFAP promoter (GFAP-LacZ transgene) in SAM-K cells
Format: cell-based
Settings: for decrease of relative β-Gal activity / decrease in β-Gal activity: vs 0.2% DMSO control; for decrease in β-Gal activity: kinase inhibitor 10 μM; for induction of GFAP-lacZ transgene expression (β-Gal activity) by exogenous cytokines: TGF-β 1 and 10 ng/ml, PDGF-BB 10 ng/ml, TNF-α 10 ng/ml, 24, 32, 48 and 60 hours after treatment
Procedure: Transfection and isolation of stable cell lines: The 2.2-kb hGFAP-LacZ (Maubach, G., et al., World J Gastroenterol, 2006, 12(5): 723-30) or the 2.2-kb hGFAP-DsRed plasmid was used to transfect PSC lines, using LIPOFECTAMINE™ 2000 (Invitrogen, CA, USA) according to the manufacturer's instructions. DsRed expression was identified under fluorescence microscope (Leica, Wetzlar, Germany). To isolate the stable clones expressing GFAPLacZ in SAM-K cell line, 24 hours after transfection, the cell culture medium was changed into medium containing Zeocin (500 μg/ml, Invitrogen, CA, USA). The single clones were isolated by dilution in the 96 well plates, the positive β-galactosidase (β-Gal) clones were identified by β-Gal staining kit from Invitrogen (CA, USA). Stable clones were maintained in culture medium containing 250 μg/ml Zeocin.
Treatment of PSCs with cell signaling inhibitors: Before treatment with different factors, SAM-K cells stably expressing the GFAP-LacZ at 70-80% confluence were starved in 0.5% FBS overnight, TGF-β (1 ng/ml, 10 ng/ml), PDBF-BB (10 ng/ml), and TNF-α (10 ng/ml) treatments were carried out at different time points, PBS buffer (0.2%) treatment served as control. Kinase inhibitors (10 μM), including LY 294002, U0126, SP600125, SB 203580, retinol and its metabolites, including retinol, 9-RA, ATRA, were applied to the cell culture medium at both 2 μM and 5 μM concentrations. Treatment in 0.2% DMSO served as control. The transgenic β-Gal activity was quantified at various times following treatment.
To obtain cryostat sections, the pancreas was removed from both GFAP-LacZ transgenic mouse and wild type mouse of the same FVB/N genetic background, and were fixed in 4% PFA fixative for 30 minutes. The fixed tissues were infiltrated overnight with 30% sucrose. Small pieces of tissue were mounted in OCT medium, and 14-μm sections were collected onto POLYSINE™ slides (Menzel GmbH & Co KG, Braunschweig, Germany). The expression of lacZ gene was detected using a staining kit from Invitrogen. The sections were stained with X-gal substrate overnight at room temperature, and subsequently counter-stained with eosin, prior to being mounted on slides with HYDROMOUNT™ (National diagnostics, Georgia, USA). To quantify the GFAP-LacZ expression, the β-Gal activity in the total cell extracts was measured with an enzymatic assay kit (Promega, WI, USA).
Statistical analysis: All quantitative results were presented as mean±SE; data were analyzed with Student t-test.

## CC1=C(/C=C/C(C)=C\C=C\C(C)=C\C(=O)O)C(C)(C)CCC1 [9-RA, 9-cis retinoic acid]
2 μM, 24 hours after treatment
  decrease of relative β-Gal activity: about 44%
2 μM, 48 hours after treatment
  decrease of relative β-Gal activity: 37%
5 μM, 24 hours after treatment
  decrease of relative β-Gal activity: about 48%
5 μM, 48 hours after treatment
  decrease of relative β-Gal activity: about 46%

## CC1=C(/C=C/C(C)=C/C=C/C(C)=C/C(=O)O)C(C)(C)CCC1 [ATRA, all-trans retinoic acid]
2 μM, 24 hours after treatment
  decrease of relative β-Gal activity: ~42%
2 μM, 48 hours after treatment
  decrease of relative β-Gal activity: 33%
5 μM, 24 hours after treatment
  decrease of relative β-Gal activity: ~42%
5 μM, 48 hours after treatment
  decrease of relative β-Gal activity: ~31%

## O=c1cc(N2CCOCC2)oc2c(-c3ccccc3)cccc12 [LY 294002]
24 hours after treatment
  decrease in β-Gal activity: ~19%
48 hours after treatment
  decrease in β-Gal activity: about 15%

## C[S+]([O-])c1ccc(-c2nc(-c3ccncc3)c(-c3ccc(F)cc3)[nH]2)cc1 (centres unmarked) [SB 203580]
24 hours after treatment
  decrease in β-Gal activity: not as significant
48 hours after treatment
  decrease in β-Gal activity: no significant effects

## Oc1c2ccccc2c2c3c(cccc13)N=N2 [SP 600125]
24 hours after treatment
  decrease in β-Gal activity: about 25%
48 hours after treatment
  decrease in β-Gal activity: about 10%

## N#CC(=C(/N)Sc1ccccc1N)/C(C#N)=C(\N)Sc1ccccc1N [U0126]
24 hours after treatment
  decrease in β-Gal activity: approximately 40%
48 hours after treatment
  decrease in β-Gal activity: about 15%

## CC1=C(/C=C/C(C)=C/C=C/C(C)=C/CO)C(C)(C)CCC1 [retinol]
2 μM, 24 hours after treatment
  decrease of relative β-Gal activity: ~33%
2 μM, 48 hours after treatment
  decrease of relative β-Gal activity: 49%
5 μM, 24 hours after treatment
  decrease of relative β-Gal activity: ~38%
5 μM, 48 hours after treatment
  decrease of relative β-Gal activity: about 48%

## TGF-β: recombinant TGF-β1 from R&D, pro-fibrogenic cytokine
  induction of GFAP-lacZ transgene expression (β-Gal activity) by exogenous cytokines: None of the treatments specifically induced transgene expression; also recorded: No significant change in enzymatic activity

## TNF-α
  induction of GFAP-lacZ transgene expression (β-Gal activity) by exogenous cytokines: None of the treatments specifically induced transgene expression; also recorded: No significant change in enzymatic activity

B1: PDGF-BB: recombinant platelet derived growth factor-BB from R&D (protein, UniProt P01127 82-190, looked up)
Platelet-derived growth …: SLGSLTIAEPAMIAECKTRTEVFEISRRLIDRTNANFLVWPPCVEVQRCSGCCNNRNVQCRPTQVQLRPVQVRKIEIVRKKPIFKKATVTLEDHLACKCETVAAARPVT
  induction of GFAP-lacZ transgene expression (β-Gal activity) by exogenous cytokines: None of the treatments specifically induced transgene expression; also recorded: No significant change in enzymatic activity
